The values that follow are results of earlier work, collected in patent US20240091141A1, “METHODS AND COMPOSITIONS FOR THE ABLATION OF NERVES” (TULAVI THERAPEUTICS, INC., priority 2021, published 2024).

The subject of data set [1] is sympathetic, sensory and motor neurons.
The conditions of data set [2]: meta-analysis covering over 12,000 patients.
For a further data set, the system named is a range of cell types. Particulars: across a range of cell types.
For a further data set, the system named is sympathetic ganglia cell. Particulars: in vitro; 4 ug/ml (10 uM).

With `CCO` [ethanol], the “concentrations that result in neurolysis” value in data set [1] was “above 50%”. Also, the destruction of neurons result in data set [1] (One-hundred percent ethanol) was “completely destroy the cell bodies and axons”.

As to hyaluronic acid, the “effect of intraarticular injections” value in data set [2] is reported as “either no effect or a “clinically irrelevant effect””. `C[C@H](CCCC(C)(C)O)[C@H]1CC[C@H]2[C@@H]3CC=C4C[C@@H](O)CC[C@]4(C)[C@H]3CC[C@]12C` [25-OH-cholesterol]: in the data set on a range of cell types, the neurotoxicity entry was “demonstrated neurotoxicity”.

Cholesterol oxides: the “time to sympathetic ganglia cell death” value in the data set on sympathetic ganglia cell is not above 36 h.
